Patent publication US11390617B2, “Methods of treating non-Hodgkin lymphoma using 2-(2,6-dioxopiperidin-3-yl)-4-((2-fluoro-4-((3-morpholinoazetidin-1-yl)methyl)benzyl)amino)isoindoline-1,3-dione” (Celgene Corporation, priority 2019, dated 2022)

Assays:
NU-DHL-1 = test: NHL cell line viability/apoptosis 384-well flow cytometry assay; format: cell-based; conditions: NU-DHL-1 (DLBCL), 120 hours
In short: (§1)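 120 h exposure, 0.00015–10 μM, 0.1% DMSO final. Readout: Annexin V/DRAQ7 flow cytometry. Viable = double negative, normalized to DMSO control; IC50/Emax/AUC from log(inhibitor) variable-slope fit. Apoptosis = Annexin V+ (early + late); EC50/Ymax/AUC from log(agonist) fit.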

TMD8 = test: as above; format: cell-based; conditions: TMD8 (DLBCL), 120 hours
In short: as §1

U-2932 = test: as above; format: cell-based; conditions: U-2932 (DLBCL), 120 hours
In short: as §1

SU-DHL-6 = test: as above; format: cell-based; conditions: SU-DHL-6 (DLBCL), 120 hours
In short: as §1

SU-DHL-10 = test: as above; format: cell-based; conditions: SU-DHL-10 (DLBCL), 120 hours
In short: as §1

U-2904 = test: as above; format: cell-based; conditions: U-2904 (DLBCL), 120 hours
In short: as §1

Farage = test: as above; format: cell-based; conditions: Farage (DLBCL), 120 hours
In short: as §1

WSU-DLCL2 = test: as above; format: cell-based; conditions: WSU-DLCL2 (DLBCL), 120 hours
In short: as §1

[1] = tested on: RL follicular lymphoma xenograft tumors; test: RL (follicular lymphoma) xenograft model, monotherapy; format: in vivo, female SCID mice; conditions: 5 days on 2 days off for 3 weeks
Method: Anti-tumor activity of Compound 1 was evaluated as monotherapy (between 1 and 30 mg/kg, qd) in RL (follicular lymphoma) xenograft model.
Xenograft study was conducted with female SCID mice bearing RL follicular lymphoma xenograft tumors. Female SCID mice were inoculated subcutaneously with RL cells in the flank region above the right hind leg. Following inoculation of animals, the tumors were allowed to grow to approximately 200 mm^3 prior to randomization. On day 14 following tumor cell inoculation, the mice bearing RL tumors ranging between 150 and 250 mm^3 were pooled together and randomized into various treatment groups. Compound 1 was formulated in 0.5% Methyl Cellulose, 0.25% Tween 80 and 50 mM Citrate pH 3 in water. Compound 1 at 1, 3, 10 or 30 mg/kg was orally administered once daily with a 5 days on and 2 days off schedule for 3 weeks starting from day 14 after tumor cell inoculation. Tumors were measured twice a week using calipers and tumor volumes were calculated using the formula of W^2×L/2. Statistical analysis was performed using a one-way or 2-way analysis of variance (ANOVA). Synergy calculations were performed using fractional product method.

[2] = Homo sapiens, read-out: IC50 (% Viable Cells)
[3] = read-out: IC50 (% Viable Cells)
[4] = 3, 10 and 30 mg/kg oral once daily

## O=C1CC[C@H](N2C(=O)c3cccc(NCc4ccc(CN5CC(N6CCOCC6)C5)cc4F)c3C2=O)C(=O)N1 [Compound 1, (S)-2-(2,6-dioxopiperidin-3-yl)-4-((2-fluoro-4-((3-morpholinoazetidin-1-yl)methyl)benzyl)amino)isoindoline-1,3-dione]
NU-DHL-1; Homo sapiens
  EC50: 1.27 nM
NU-DHL-1; [2]
  IC50: 1.07 nM
NU-DHL-1
  AUC (% Viable Cells): 12.37
  AUC (Apoptosis): 981.8
  Emax (% Viable Cells): 0.4919%
  Ymax (Apoptosis): 99.17%
TMD8; Homo sapiens
  EC50: 6.17 nM
TMD8; [2]
  IC50: 2.46 nM
TMD8
  AUC (% Viable Cells): 4.187
  AUC (Apoptosis): 963.3
  Emax (% Viable Cells): 0.245%
  Ymax (Apoptosis): 97.2%
U-2932; Homo sapiens, U2932
  EC50: 567 nM
U-2932; Homo sapiens, U2932, read-out: IC50 (% Viable Cells)
  IC50: 36 nM
U-2932
  AUC (% Viable Cells): 163.7
  AUC (Apoptosis): 212.8
  Emax (% Viable Cells): 12.8%
  Ymax (Apoptosis): 25.81%
SU-DHL-6; Homo sapiens
  EC50: 104 nM
SU-DHL-6; [2]
  IC50: 32.5 nM
SU-DHL-6
  AUC (% Viable Cells): 19.94
  AUC (Apoptosis): 920.7
  Emax (% Viable Cells): 0.2469%
  Ymax (Apoptosis): 95.92%
SU-DHL-10; Homo sapiens, SU-DHL10
  EC50: 39.4 nM
SU-DHL-10; Homo sapiens, SU-DHL10, read-out: IC50 (% Viable Cells)
  IC50: 6.1 nM
SU-DHL-10
  AUC (% Viable Cells): 10.36
  AUC (Apoptosis): 903
  Emax (% Viable Cells): 0.6716%
  Ymax (Apoptosis): 92.27%
U-2904
  AUC (% Viable Cells): 334.1
  AUC (Apoptosis): 456.1
  EC50: 3290 nM
  Emax (% Viable Cells): 7.609%
  Ymax (Apoptosis): 77.39%
U-2904; [3]
  IC50: 201 nM
Farage
  AUC (% Viable Cells): 10.16
  AUC (Apoptosis): 728.7
  EC50: 30.2 nM
  Emax (% Viable Cells): 0.7936%
  Ymax (Apoptosis): 84.17%
Farage; [3]
  IC50: 2.38 nM
WSU-DLCL2; Homo sapiens, WSUDLCL2
  EC50: 84.7 nM
WSU-DLCL2; Homo sapiens, WSUDLCL2, read-out: IC50 (% Viable Cells)
  IC50: 16.9 nM
WSU-DLCL2
  AUC (% Viable Cells): 36.7
  AUC (Apoptosis): 858.9
  Emax (% Viable Cells): 1.387%
  Ymax (Apoptosis): 92.1%
[1]; 1 mg/kg oral once daily
  inhibited RL follicular lymphoma tumor growth: −96.8%
[1]; [4]
  tumor free animals: all the animals became tumor free
  tumor growth: completely inhibited
